Holding throughout (type): ADME
Data set [1] relates to Rachis. The data set is described as follows: Drug uptake in Phoenix dactylifera (date palm) rachis at 2.5 ml/l at 20 days post-treatment by UV spectrophotometric analysis. As to conditions: 480 h.
Data set [2] concerns Root. The data set is described as follows: Drug uptake in Phoenix dactylifera (date palm) roots at 2.5 ml/l at 20 days post-treatment by UV spectrophotometric analysis. The following applies: 480 h.
In data set [3] the test system is Root. Description: Drug uptake in Phoenix dactylifera (date palm) roots at 2.5 ml/l at 10 days post-treatment by UV spectrophotometric analysis. The following applies: 240 h.
Data set [4] relates to Pinnae. Description: Drug uptake in Phoenix dactylifera (date palm) pinnae at 2.5 ml/l at 10 days post-treatment by UV spectrophotometric analysis. As to conditions: 240 h.
The subject of data set [5] is Gomar. The data set is described as follows: Drug uptake in Phoenix dactylifera (date palm) gomar at 2.5 ml/l at 20 days post-treatment by UV spectrophotometric analysis. The following applies: 480 h.
The subject of data set [6] is Leaf base. The data set is described as follows: Drug uptake in Phoenix dactylifera (date palm) leaf base at 2.5 ml/l at 20 days post-treatment by UV spectrophotometric analysis. As to conditions: 480 h.
Data set [7] has as its system Rachis. The data set is described as follows: Drug uptake in Phoenix dactylifera (date palm) rachis at 2.5 ml/l at 10 days post-treatment by UV spectrophotometric analysis. As to conditions: 240 h.
The subject of data set [8] is Gomar. Description: Drug uptake in Phoenix dactylifera (date palm) gomar at 2.5 ml/l at 10 days post-treatment by UV spectrophotometric analysis. The following applies: 240 h.
In data set [9] the test system is Leaf base. The data set is described as follows: Drug uptake in Phoenix dactylifera (date palm) leaf base at 2.5 ml/l at 10 days post-treatment by UV spectrophotometric analysis. The following applies: 240 h.
The subject of data set [10] is Pinnae. Description: Drug uptake in Phoenix dactylifera (date palm) pinnae at 2.5 ml/l at 20 days post-treatment by UV spectrophotometric analysis. As to conditions: 480 h.

For the molecule `O=[N+]([O-])NC1=NCCN1Cc1ccc(Cl)nc1` [IMIDACLOPRID], the Drug uptake came to 1.11 ppm in the data set on Rachis [1]; 0.18 ppm with Root [2]; 0.41 ppm in the data set on Root [3]; 0.32 ppm in the data set with Pinnae [4]; 0.33 ppm in the data set on Gomar [5]; 0.38 ppm in the data set with Leaf base [6]. Moreover, the Drug uptake was 1.31 ppm in the data set on Rachis [7], 0.46 ppm in the data set on Gomar [8], 0.51 ppm with Leaf base [9] and 1.21 ppm with Pinnae [10].

Source of the values: ChEMBL document CHEMBL3046274, “Toxicity of imidacloprid to developmental stages of Rhynchophorus ferrugineus (Curculionidae: Coleoptera): Laboratory and field tests” (Crop Prot, 2006).
